Several values for one entry are separate records, joined by “and”; a condition that tells them apart may be missing. Equal values may be shown once.
What was measured:
[1] = target: T1, menthone: (3R)-(−)-menthol reductase (SEQ ID NO:2) (Mentha x piperita, UniProt Q5CAF4); assay: Substrate specificity of the reductase; assay type: biochemical; conditions: 100 μM monoterpenone substrate, 500 μM NADPH, 0.5 μg reductase, pH optimum, overnight incubation
[2] = target: T1, menthone: (3R)-(−)-menthol reductase (SEQ ID NO:2); conditions: at saturation under linear reaction conditions
Procedure: Assay mixtures containing 2 ml of 40 mM KH2PO4 at pH 7, with 10 mM β-mercaptoethanol were combined with 500 μM cofactor and concentrations of monoterpene substrate ranging from 2.5 μM to 1 mM, or with 100 μM monoterpene substrate, and concentrations of cofactor ranging from 0.1 μM to 1 mM, and preheated to 31° C. before initiation of the reaction by enzyme addition (0.008 to 1.3 μg protein). The reactions were quenched after 6 to 9 min by addition of 0.5 ml pentane containing camphor as internal standard (6.6 μM) followed by vigorous mixing and cooling on ice; quantitation of products in the pentane extract was achieved by capillary-GC using the conditions described above with peak area quantification using the internal standard for normalization. […] Kinetic constants, representing the average of at least two independent experiments, were determined by nonlinear regression analysis of Michaelis-Menten plots using Enzyme Kinetics, v 1.11 (Trinity Software, Plymouth, N.H.). The values reported are the means±standard error.

[3] = target: T1, menthone: (3R)-(−)-menthol reductase (SEQ ID NO:2); assay: In vitro demonstration of menthone reductase activity (product analysis by GC, GC-MS); assay type: biochemical; conditions: partially purified recombinant protein
Procedure: Bacteria harboring the pSBET-reductase plasmid or the pET-reductase plasmid were grown in 5 ml cultures of Luria-Bertani (LB) media to an OD600 of 0.8-1.0, at which time the cultures were cooled to 10° C., isopropyl-β-D-thiogalactopyranoside was added to 0.25 mM, and growth was continued for 12-18 h at 10° C. with shaking at 220 rpm. Cells were pelleted by centrifugation for 25 min at 2500 g and 4° C., and then resuspended in 1 ml resuspension buffer (50 mM Mopso, pH 7, with 10% (v/v) glycerol, 10% (w/v) sorbitol, and 10 mM […]) containing 0.4 mg/ml lysozyme. Following incubation on ice for 30 min, the extract was sonicated for 10 sec with a Virtis sonicator using a microtip probe at medium power. Cell debris was pelleted by centrifugation at 27,000 g at 4° C. for 30 min, and the supernatant, containing the operationally soluble reductase, was used for initial characterization.
Following incubation with gentle shaking at 31° C. for 12 h, 0.5 ml of pentane was added and the mixture was vigorously mixed to extract the monoterpene products which were analyzed by GC and GC-MS as described above. […] Following 15 h of shaking (250 rpm) at 15-20° C., these cultures were transferred to 0.5 L round-bottom flasks, to which 6.6 μmol of (+)-camphor was added as an internal standard, and the mixture was steam distilled and the distillate analyzed as described above.

[4] = substrate: CC(C)[C@H]1CC[C@@H](C)CC1=O; assay: purified protein, by the assay type; conditions: other: monoterpene substrate, NADPH as cofactor, reductase expressed from pSBET, pH 7, 31° C., means±standard error
[5] = substrate: CC(C)[C@@H]1CC[C@@H](C)CC1=O; assay: purified protein, by the assay type; conditions: other: monoterpene substrate, NADPH as cofactor, reductase expressed from pSBET, pH 7, 31° C., means±standard error
[6] = target: T1, menthone: (3R)-(−)-menthol reductase (SEQ ID NO:2); assay: pH optimum of the reductase; assay type: biochemical; conditions: 25 μM menthone, 500 μM NADPH, 0.5 μg protein, 6 min at 31° C.
[7] = from (+)-isomenthone in the presence of NADPH
[8] = from (−)-menthone in the presence of NADPH

C=C(C)[C@H]1CC[C@@H](C)CC1=O (relative stereo) [(+)-cis-isopulegone]
reduction of alternate substrate to the corresponding monoterpenols [1]: only able to detectably reduce (+)-menthone

C=C(C)C1CC=C(C)C(=O)C1 (single isomer, unassigned; (-)) [(−)-carvone]
reduction of alternate substrate to the corresponding monoterpenols [1]: only able to detectably reduce (+)-menthone

C=C(C)C1CCC(C)=CC1=O (single isomer, unassigned; (-)) [(−)-isopiperitenone]
reduction of alternate substrate to the corresponding monoterpenols [1]: only able to detectably reduce (+)-menthone

CC(C)=C1CC[C@@H](C)CC1=O [(+)-pulegone]
reduction of alternate substrate to the corresponding monoterpenols [1]: only able to detectably reduce (+)-menthone

NC(=O)C1=CN([C@@H]2O[C@H](COP(=O)(O)OP(=O)(O)OC[C@H]3O[C@@H](n4cnc5c(N)ncnc54)[C@H](O)[C@@H]3O)[C@@H](O)[C@H]2O)C=CC1 [NADH]
turnover with NADH as cofactor compared with NADPH [2]: less than 20%

CC(C)[C@H]1CC[C@@H](C)CC1=O [isomenthone, (+)-isomenthone]
product share (3R)-(+)-neoisomenthol [3, 7]: 87%
product share (3S)-(+)-isomenthol [3, 7]: 13%

CC(C)[C@@H]1CC[C@@H](C)CC1=O [menthone, (−)-menthone]
product share (3R)-(−)-menthol [3, 8]: 95%
product share (3S)-(+)-neomenthol [3, 8]: 5%

(+)-menthone
reduction of alternate substrate to the corresponding monoterpenols [1]: detectably reduce

B1: menthone: (3R)-(−)-menthol reductase (SEQ ID NO:2) (Mentha x piperita) (protein)
chain: MADTFTQRYALVTGANKGIGFEICRQLASKGMKVILASRNEKRGIEARERLLKESRSISDDDVVFHQLDVADPASAVAVAHFIETKFGRLDILVNNAGFTGVAIEGDISVYQECLEANIIAAQGGQAHPFHPKTTGRLIETLEGSKECIETNYYGTKRITETLIPLLQKSDSPTIVNVSSTFSTLLLQPNEWAKGVFSSNSLNEGKVEEVLHEFLKDFIDGKLQQNHWPPNFAAYKVSKAAVNAYTRIIARKYPSFCINSVCPGFVRTDICYNLGVLSEAEGAEAPVKLALLPDGGPSGSFFSREEALSLY
Km [4]: 41 ± 5 µM
Km [5]: 3.0 ± 0.6 µM
kcat [5]: 0.6 s⁻¹

B2: reductase (SEQ ID NO:2): recombinant peppermint menthone: (3R)-(−)-menthol reductase, 311 residue protein encoded by cDNA SEQ ID NO:1, expressed in E. coli (protein)
chain: B1 chain
modifications: Mentha Piperita
pH of half maximal activities [6]: 4.5 and 8.5
pH optimum [6]: 7.0

— patent US8426684B2 (Washington State University Research Foundation, priority 2004, dated 2013)
